Publication PMC10223898 (Pharmaceuticals, 2023)
Like-named read-outs stand apart in the source and are kept apart here.

Assays:
LsrK [1] = target: T1, LsrK (Salmonella typhimurium, UniProt Q8ZKQ6); assay: LsrK inhibition assay (Kinase-Glo luminescence); format: biochemical, S. typhimurium; conditions: for inhibition at 200 µM: compound at 200 μM
T1 construct: hexa-histidine (C); made in house; host or cells: E. coli BL21(DE3), pET-28a
Method: (§1) To express LsrK or LsrK-N with a hexa-histidine tag at the C-terminus, the LsrK or LsrK-N encoding gene of S. typhimurium was amplified using primers carrying restriction endonuclease sites for BamHI and XhoI, respectively. The amplified product was cloned into the expression vector pET-28a with a C-terminal hexa-histidine tag and transfected into E. coli BL21(DE3) cells. The transformed cells were selected on LB agar plates containing 50 µg/mL kanamycin. The recombinant isolates were grown at 37 °C to the mid-log exponential phase. Protein synthesis was induced by 0.5 mM IPTG. After overnight growth, the cells were pelleted at 13,000× g for 10 min at 4 °C, resuspended in lysis buffer (50 mM NaH2PO4, 300 mM NaCl, and pH 8.0), and sonicated on ice for 10 cycles with a 30-s pulse and 30-s pause. The bacterial lysate was then centrifuged at 4 °C, 13,000× g for 10 min, and the supernatant passed through a 0.22 µm filter.
The LsrK inhibition assay was performed as described previously. The 62 selected compounds were dissolved in DMSO at a concentration of 2 mM. The assay was carried out with final concentrations of 300 nM LsrK, 100 μM ATP, and 300 μM DPD in a reaction buffer containing 25 mM TEA, pH 7.4, 800 μM MgCl2, and 0.1 mg/mL BSA. Specifically, 10 μL DPD, 10 μL LsrK, and 5 μL of the compound were added to a 96-well plate, and a 25 μL ATP or 25 μL reaction buffer was added after 30 min of incubation. The plate was incubated for 10 min at 37 °C, then 50 μL of kit reagent was added and the plate was incubated at 37 °C for 15 min. The luminescence signal was measured by the Enspire 2300 microplate reader (PerkinElmer). To confirm the activity of hits selected by primary screening, dose-response experiments were performed (200–6.25 µM). The inhibition % for each tested compound was determined as described previously. The IC50 values were calculated using the four logistic parameters.

[2] = tested on: AI-2 QS in WHQ01 (S. typhimurium ATCC 202165 ΔTolC pWHQ01); assay: Cell-based AI-2-mediated QS interference assay in WHQ01; conditions: Salmonella enterica, read-out: WHQ01 (IC50)
Text: (§2) All chemicals were purchased from Sigma-Aldrich (St. Louis, MO, USA) if not otherwise stated. DPD was purchased from […] ZZBIO Co., Ltd. (Shanghai, China). The Kinase-Glo Max Luminescent kinase assay kit was purchased from Promega Corp. (Madison, WI, USA). The NTA sensor chip was purchased from GE Healthcare (Chicago, IL, USA). All compounds selected by virtual screening were purchased from Topscience Biotechnology Co., Ltd. (Shanghai, China). The QS reporter strains WHQ01 (S. typhimurium ATCC 202165 ΔTolC pWHQ01) and WHQ02 (E. coli BL21 ΔTolC pWHQ01) were donated by Huiqi Wen (Institute of Microbiology and Epidemiology, Academy of Military Sciences, Beijing, China). The plasmid pWHQ01 was constructed by cloning of lsr promoters and the luxCDABE luminescent gene. BamHI, XhoI, EcoRI, and NotI restriction endonucleases were purchased from New England Biolabs (Ipswich, MA, USA). pET-28a and pGEX-4T-1 were purchased from Novagen (Madison, WI, USA). E. coli BL21 (DE3) was purchased from TransGen Biotech Co., Ltd. (Beijing, China). The Ni-NTA column and GST Gravity column were purchased from Sangon Biotech (Shanghai, China). Sodium dodecyl sulfate-polyacrylamide gel electrophoresis (SDS-PAGE) gels and the Bradford Protein Assay Kit were purchased from Thermo Fisher Scientific (Waltham, MA, USA). Ultrafiltration centrifuge tubes were purchased from Millipore (Bedford, MA, USA). Dialysis bags were purchased from Beijing Solarbio Science and Technology Co., Ltd. (Beijing, China).
(§3) WHQ01 or WHQ02 was cultured overnight and diluted 1:100 in fresh LB supplemented with 100 µg/mL ampicillin and grown at 30 °C until the logarithmic phase (OD600 = 0.4–0.6). The bacterial culture was centrifuged at 4000× g for 5 min and the pellet was resuspended with fresh LB to prepare a suspension of 2 McFarland standard, which was added to a 96-well plate. In the experimental group, 62 compounds with final concentrations ranging from […] were added to obtain a total volume of 100 µL. A negative control comprising 100 µL of LB with DMSO of the same volume and a positive control comprising 100 µL of LB supplemented with 2% glucose and DMSO of the same volume were also added. Then, bacteria were grown at 37 °C for 3 h. The […] of WHQ01 or WHQ02 was directly regulated by the Lsr promoters to reflect the strength of AI-2 QS. Luminescence was measured by the Enspire 2300 microplate reader. To further study the effect of compounds on bacterial growth, a suspension containing 1 × 10^8 CFU/mL of WHQ01 or WHQ02 (0.5 McFarland standard) was diluted 1:100 with LB and added to a 96-well plate. Compounds were added to the 96-well plate at a final concentration of 100 µM and diluted in a gradient. DMSO of the same volume was added as the control group. The plate was grown at 37 °C for 18–24 h. The OD600 values were recorded using the Enspire 2300 microplate reader. The experiment was performed three times.

[3] = tested on: AI-2 QS in WHQ02 (E. coli BL21 ΔTolC pWHQ01); assay: Cell-based AI-2-mediated QS interference assay in WHQ02; conditions: Escherichia coli
Text: as §2, §3

LsrK [4] = target: T1, LsrK; assay: LsrK inhibition assay (Kinase-Glo luminescence); format: biochemical, S. typhimurium; conditions: dose-response curves at 50, 100 and 150 μM ATP
[5] = target: T2, LsrK-N protein (HPr binding domain, residues 1-260) (Salmonella typhimurium, UniProt Q8ZKQ6); assay: SPR assay on immobilized LsrK-N; set-up: species or system S. typhimurium
T2 construct: hexa-histidine (C); made in house; host or cells: E. coli BL21(DE3), pET-28a
Method: as §1
(§4) Serial dilutions of compound 4171-0375 were injected, ranging in concentrations from 100 to 1.56 µM, an intermediate concentration of 12.5 µM was set as a repeat, and 1× PBS-T with 5% v/v DMSO was set as a control group. The association time was set to 120 s, the dissociation time was set to 130 s, and the flow rate was set to 30 µL/min. The resulting data were fit to the affinity binding model using Biacore Evaluation Software (GE Healthcare).

LsrK [6] = target: T1, LsrK; assay: SPR assay on immobilized LsrK; format: binding, S. typhimurium
Method: as §1, §4

[7] = dose-response 200–6.25 µM, 100 μM ATP, 300 μM DPD, mean ± SD, n = 3, read-out: LsrK (IC50)
[8] = dose-response assay, read-out: LsrK inhibition IC50

T1 sequence (Q8ZKQ6 whole entry): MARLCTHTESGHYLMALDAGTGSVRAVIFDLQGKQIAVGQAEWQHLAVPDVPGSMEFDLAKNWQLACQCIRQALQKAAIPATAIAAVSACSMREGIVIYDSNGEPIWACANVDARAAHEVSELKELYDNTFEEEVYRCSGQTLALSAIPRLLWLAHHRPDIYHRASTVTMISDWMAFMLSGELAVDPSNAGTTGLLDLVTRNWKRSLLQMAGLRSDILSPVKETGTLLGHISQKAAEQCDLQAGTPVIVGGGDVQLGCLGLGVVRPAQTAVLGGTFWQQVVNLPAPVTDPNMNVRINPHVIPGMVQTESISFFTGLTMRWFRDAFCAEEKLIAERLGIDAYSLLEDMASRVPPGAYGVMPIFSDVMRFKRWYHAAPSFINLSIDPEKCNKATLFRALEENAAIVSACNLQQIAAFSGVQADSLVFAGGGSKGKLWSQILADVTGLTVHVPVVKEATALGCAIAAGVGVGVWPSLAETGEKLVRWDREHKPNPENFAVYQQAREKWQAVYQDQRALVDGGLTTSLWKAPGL
T2 sequence (Q8ZKQ6 1-260): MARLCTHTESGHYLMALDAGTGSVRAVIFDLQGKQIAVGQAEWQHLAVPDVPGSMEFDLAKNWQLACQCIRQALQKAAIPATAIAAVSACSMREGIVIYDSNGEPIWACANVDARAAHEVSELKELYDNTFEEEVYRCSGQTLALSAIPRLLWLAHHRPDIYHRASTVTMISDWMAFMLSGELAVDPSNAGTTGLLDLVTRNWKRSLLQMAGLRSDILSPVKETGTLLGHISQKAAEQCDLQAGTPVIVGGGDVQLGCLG

| SMILES | inhibition at 200 µM (LsrK [1]; mean ± SD, n = 3) [%] | IC50 (LsrK [1]; [7]) [µM] | IC50 [2] [µM] | IC50 ([3]; BL21, read-out: WHQ02 (IC50)) [µM] | IC50 (LsrK [1]; [8]) [µM] | ATP competition (mode of inhibition) (LsrK [4]) | IC50 ([3]; BL21, read-out: AI-2 QS inhibition IC50 against WHQ02) [µM] | Kd ([5]; His-tagged LsrK-N on NTA chip, Biacore 8K, affinity model) [µM] | binding and dissociation behaviour on LsrK-N (SPR) ([5]; sensorgram, in words) | Kd (LsrK [6]; His-tagged LsrK on NTA chip, Biacore 8K, affinity model) [µM] | binding and dissociation behaviour on LsrK (SPR) (LsrK [6]; sensorgram, in words) |
| --- | --- | --- | --- | --- | --- | --- | --- | --- | --- | --- | --- |
| COc1cc(/C=C2/SC(=S)N(c3cccc(C(F)(F)F)c3)C2=O)ccc1OCC(=O)O [Compound 3229-1889] | 63 ± 4 | 121 ± 5.37 | 24.7 ± 1.42 | 15 ± 1.24 | – | – | – | – | – | – | – |
| CCOc1cc(/C=N/NC(=N)N)ccc1OCc1ccc(Cl)cc1 [Compound 4171-0375] | 98 ± 7 | 26.1 ± 2.94 | 42.9 ± 1.63 | 30.1 ± 1.62 | < 100 | non-ATP competitive inhibitors | 29.1 ± 1.23 | 25.1 | quickly bound and dissociated | 94.5 | quickly bound and dissociated |
| CCOc1cc(C2NC(C(=O)O)CS2)ccc1OCc1c(F)cccc1Cl (stereo not shown) [Compound 8012-5390] | 60 ± 4 | 147 ± 5.58 | 23.3 ± 1.05 | 17.7 ± 0.98 | – | – | – | – | – | – | – |
| NCCc1cn(Cc2ccc(C(F)(F)F)cc2)nn1 [Compound 8020-4294] | 65 ± 9 | 148 ± 6.92 | 24.9 ± 1.1 | 67.2 ± 4.32 | – | – | – | – | – | – | – |
| Cc1c(CC(=O)O)c(=O)oc2c(C)c(OCc3ccc(F)cc3F)ccc12 [Compound D715-0257] | 57 ± 7 | 153 ± 5.43 | 21.1 ± 1.18 | 22.3 ± 2.15 | – | – | – | – | – | – | – |
| Cc1ccc(NC(=O)C[C@H](C)n2ccnc2)cc1Cl [Compound G268-0878] | 58 ± 5 | 129 ± 6.14 | 30.6 ± 1.26 | 42.3 ± 1.42 | – | – | – | – | – | – | – |
| CN1CCN(C(=O)c2ccc(NCc3ccc(F)cc3)c(S(=O)(=O)Nc3cccc(C(F)(F)F)c3)c2)CC1 [Compound K659-0421] | 75 ± 8 | 73.7 ± 5.33 | 7.97 ± 0.38 | 17 ± 0.37 | < 100 | non-ATP competitive inhibitors | – | – | – | – | – |
